Experimental data from patent publication US11980620B2, “Compounds and methods for treatment of Diamond Blackfan anemia” (THE CHILDREN'S MEDICAL CENTER CORPORATION, priority 2017, dated 2024).

Assays:
CB CD34+ RPS19sh cells = experiment: Erythroid differentiation of CB CD34+ progenitors transduced with shRNAs for RPS19; type: cell-based, human
Experimental: (FIG. 8A) The distribution of 1440 compounds by Z-score in a proliferation-based screen of the Sigma LOPAC chemical library. DBA CD34-5F cells were plated in erythroid-promoting conditions in 384-well format. Erythroid proliferation was measured in the presence of 5 μM of each compound, and converted into Z-scores. The screen was carried out with 3 RPS19 DBA and 2 normal iPSC lines. (FIG. 88) Dose-dependent effect of SMER28 (in μM) on erythroid differentiation, shown as the absolute number of erythroid cells in each drug-treated condition normalized to vehicle (DMSO) control. Erythroid cells were analyzed on day 9 of differentiation using markers CD71 and GlyA. […] (FIG. 8C) Absolute number of erythroid cells (analyzed on day 9) in each drug-treated condition normalized to vehicle (DMSO) control (4 independent experiments). […]
(FIG. 12A) Erythroid differentiation of control and DBA CD34-5F cells treated with DMSO vehicle or SMER28 (10 μM) during the initial CD34^+ progenitor phase (day 0-4 of differentiation), or stage I of erythroid culture (day 4-9 of differentiation). Percent of erythroid cells after stage I of differentiation is indicated in top left for each condition, and quantitated in (FIG. 12B). […] GFP^+ RPS19^sh and GFP^− control cells were quantitated separately. […] Arrows indicate enucleated RBCs, which are quantitated by flow cytometry. […]

DBA iPSCs = experiment: Cytotoxicity (Annexin and DAPI positive cells) at varying doses; type: cell-based, human; conditions: drug doses up to 20 μM
Description: FIGS. 9A-9D show compounds screened for rescue of erythroid differentiation defects. […] (FIG. 9B) List of compounds screened that provided promising results. (FIG. 9C) FACS plots showing GlyA and CD71 expression levels for indicated genotype (top panels). Micrographs showing GlyA^+ CD71^+ cells in indicated genotype (bottom panels). (FIG. 9D) Plot showing the percentage of Annexin and DAPI positive cells following varying doses of SMER28.

A53T alpha-synuclein = conditions: PC-12 cells; independent of rapamycin treatment; cited from earlier work
[1] = system: CD34-5F or CB progenitors; experiment: Output of mature RBCs at end of stage III of erythroid culture; type: cell-based, human
Experimental: (FIG. 12A) Erythroid differentiation of control and DBA CD34-5F cells treated with DMSO vehicle or SMER28 (10 μM) during the initial CD34^+ progenitor phase (day 0-4 of differentiation), or stage I of erythroid culture (day 4-9 of differentiation). Percent of erythroid cells after stage I of differentiation is indicated in top left for each condition, and quantitated in (FIG. 12B). Data are shown as mean f s.e.m. of 4 independent experiments, with 2 control and 4 DBA iPSCs. (FIG. 12C) Same as (FIG. 12A) for CB CD34+ cells transduced with shRPS19 hairpins. GFP^+ RPS19^sh and GFP^− control cells were quantitated separately. […] (FIG. 12D) RBC pellets at the end of stage III initiated with equal numbers of CD34-5F or CB progenitors. SMER28 was added at […]. (FIG. 12E) May-Grunwald-Giemsa stain of erythroid cells from CB CD34^+ at end of stage III. Arrows indicate enucleated RBCs, which are quantitated by flow cytometry. (FIG. 12F) Quantitation of the enucleation efficiency (left) of GLYA^+ cells. Data in FIGS. 12E-12F represents 3 independent experiments. For all panels, *p<0.05, **p<0.01.
Erythroblasts proliferate rapidly to give rise to terminally differentiated RBCs. […]

C=CCNc1ncnc2ccc(Br)cc12 [SMER28, 6-Bromo-N-2-propenyl-4-quinazolinam]
erythroid output of RPS19sh cells (CB CD34+ RPS19sh cells; dose curve, highest activity at lower doses): robustly increased
erythroid output (CB CD34+ RPS19sh cells; treatment of undifferentiated CD34+ RPS19sh cells): sufficient to improve erythroid output
Cytotoxicity (DBA iPSCs): not observed
A53T alpha-synuclein clearance (A53T alpha-synuclein): Enhances
output of RBCs from erythroblasts ([1]; treatment of CD34+ progenitors only): comparable to vehicle controls
output of iPSC- and CB-derived mature RBCs ([1]; treatment of erythroblasts during stages I-III): enhanced
